In US9718770B2, “Substituted thioureas as heat shock protein 70 inhibitors” (Institute of Pharmacology and Toxicology Academy of …, priority 2013, dated 2017):

How the values were obtained:
SK-BR3 = test: CDI of example compounds and Lapatinib (ATPlite cell survival); format: cell-based; set-up: key: CDI = AB/(A×B); <1 synergistic; settings: compound 5 μM + Lapatinib 1 μM, 72 h; Lapatinib-sensitive human breast cancer cells; CDI<1 synergistic
Protocol: (§1) Cells: (BT474 and SK-BR3 are Lapatinib-sensitive human breast cancer cell strains; BT/LapR and SK/LapR are secondary Lapatinib-resistant human breast cancer cell strains upon Lapatinib stimulation; MDA-MB-361 and MDA-MB-453 are natural Lapatinib-resistant human breast cancer cell strains. BT474, MDA-MB-361, SK-BR3 and MDA-MB-453 are from American Type Culture Collection (ATCC))
(§2) In a 100 mm culture dish full of adherent cells, digestion with 1 ml 0.25% pancreatin (GIBCO) was carried out at 37° C. for 5 min, and the reaction was stopped with 2 ml medium (containing 10% FBS, GIBCO). The cells were dispersed and collected. After cell count, the cells were diluted to a concentration of 1×10^5 cells/ml, and were seeded to a 96-well plate at 50 μl/well, 5000 cell/well, 60 wells in total, PBS instead of cells was added to the wells of the outmost circle, and the incubation was carried out at 37° C. for 24 h for adherence.
(§3) For the sample group, samples to be tested were diluted with DMSO to a final concentration of 5 μM; to control wells, the medium containing the same concentration of solvent corresponding to the compound was added, the concentrations of the compounds were identical in each well, 5 wells in parallel were set for each concentration, 25 μL/well, and 25 μL medium was added to each well (for the combination group, 25 μL Lapatinib was added to reach a final concentration of 1 μM). The incubation was carried out at 37° C. for 72 h.
(§4) To each well, 50 μL ATPlite kit substrate solution was added. The plate was under shaking for 3 min, and was then placed in dark for 10 min. The lysis supernatant was drawn at 100 μL/well, and placed in a luminescent plate. The incubated luminescent plate was placed in an iluminescence apparatus, and the iluminescent value was read.
(§5) Data Processing Cell survival rate (%)=Experimental group RLU/control group RLU×100%
(§6) Coefficient of drug interaction (CDI) is used to evaluate the interaction of two drugs, CDI is calculated in accordance with the following formula: CDI=AB/(A×B)×100%. The calculation is performed according to the number of live cells (luminescent value), if CDI<1, the two drugs have a synergistic effect; if CDI<0.7, the synergistic effect is very significant; if CDI=1, the effect of the two drugs in combination is the sum of the effects of the two drugs; if CDI>1, the two drugs have an antagonistic effect.

BT474 = test: as above; format: cell-based; set-up: key: CDI = AB/(A×B); <1 synergistic; settings: compound 5 μM + Lapatinib 1 μM, 72 h; Lapatinib-sensitive human breast cancer cells; CDI<1 synergistic, <0.7 very significant, >1 antagonistic
Protocol: as §1, §2, §3, §4, §5, §6

MDA-MB-453 = test: as above; format: cell-based; set-up: key: CDI = AB/(A×B); <1 synergistic; settings: compound 5 μM + Lapatinib 1 μM, 72 h; natural Lapatinib-resistant human breast cancer cells; CDI<1 synergistic
Protocol: as §1, §2, §3, §4, §5, §6

MDA-MB-361 = test: as above; format: cell-based; set-up: key: CDI = AB/(A×B); <1 synergistic; settings: compound 5 μM + Lapatinib 1 μM, 72 h; natural Lapatinib-resistant human breast cancer cells; CDI<1 synergistic
Protocol: as §1, §2, §3, §4, §5, §6

Hsp70 ATPase = target: T1, Hsp70 ATPase (Homo sapiens, UniProt P0DMV8); test: Inhibition of Hsp70 ATPase activity (malachite green); format: biochemical; settings: 200 μM; repeated screening carried out twice; Hsp70/Hsp40, 1 mM ATP; read-out: Inhibitory rate (%) on activity of Hsp70 ATPase
T1 construct: made in house; host or cells: E. coli
T1 sequence (P0DMV8 2-641 limits assumed): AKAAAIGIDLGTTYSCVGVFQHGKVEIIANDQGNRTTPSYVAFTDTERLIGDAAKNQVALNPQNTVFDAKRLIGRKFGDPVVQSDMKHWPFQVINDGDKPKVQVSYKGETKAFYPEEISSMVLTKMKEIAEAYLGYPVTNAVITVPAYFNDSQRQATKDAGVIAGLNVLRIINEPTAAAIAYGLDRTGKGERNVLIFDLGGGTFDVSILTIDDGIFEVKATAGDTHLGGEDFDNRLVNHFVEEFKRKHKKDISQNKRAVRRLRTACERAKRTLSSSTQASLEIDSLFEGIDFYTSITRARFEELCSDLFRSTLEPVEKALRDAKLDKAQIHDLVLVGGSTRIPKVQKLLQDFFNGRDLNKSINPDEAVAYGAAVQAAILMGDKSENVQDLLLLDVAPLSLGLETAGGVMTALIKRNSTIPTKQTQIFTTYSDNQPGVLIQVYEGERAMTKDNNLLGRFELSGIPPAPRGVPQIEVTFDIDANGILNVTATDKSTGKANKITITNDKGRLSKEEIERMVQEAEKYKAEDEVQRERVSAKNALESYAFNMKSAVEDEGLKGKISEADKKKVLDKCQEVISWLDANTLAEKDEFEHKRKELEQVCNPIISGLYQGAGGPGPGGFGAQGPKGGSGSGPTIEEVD
Protocol: (1) Protein: Humanized Hsp70, Hsp40, expressed by E. coli.
(2) Sample to be tested: 26 compound solids with different colors and states. Positive drugs AZ (CAS:1054543-47-3) and VER 155008 (CAS: 1134156-31-2) were synthesized in the laboratory.
(4) ATPase Assay buffer: • 0.017% Triton X-100; • 100 mM Tris-HCl; • 20 mM KCl; • 6 mM MgCl2, pH 7.4.
1) 13.08 μl DnaK (0.15 mg/mL, 2.14 μM), 1.96 μl DnaJ (1 mg/mL, 25 μM) were dissolved in 7.96 μl Assay Buffer (0.017% Triton X-100, 100 mM Tris-HCl, 20 mM KCl, and 6 mM MgCl2, pH 7.4), and the resultant solution was added to each well of the 96 well plate;
2) to each well of the 96 well plate, 1 μL sample to be tested (5 mM) or DMSO (solvent) was added, and vortexed with a Vortex agitator for 10 min; and then standing at 37° C. for 30 min;
3) to each well, 1 μL 25 mM ATP was added, to trigger the enzymatic reaction; (in each well, the final reaction volume was 25 μL, the final concentration of DnaK was 1.12 μM, the final concentration of DnaJ was 1.96 μM, the final concentration of DMSO was 4%, the final concentration of Triton X-100 was 0.01%, the final concentration of ATP was 1 mM, and the final concentration of sample to be tested was 200 μM), the enzymatic reaction was carried out at 37° C. for 3 h;
4) 80 μL Malachite green staining solution was then added to each well, and was vortexed gently;
5) 10 μL of 34% citrate sodium was then added immediately, and vortexed gently, to stop the ATP hydrolysis not caused by ATPase;
6) the resultant mixture was mixed thoroughly at 37° C. for 15 min, and OD620 was measured.
The inhibitory rate of Hsp70 ATPase activity is calculated in accordance with the following formula: Inhibitory rate (%)=(DMSO well OD−Experimental well OD)/(DMSO well OD−Blank well OD)×100
Criteria for preliminary screening: during preliminary screening, an example compound is regarded as effective in inhibition as long as its inhibitory rate is above 20% for Hsp70 ATPase at 200 μM.

SK/Lap^R1.0 = test: CDI of example compounds and Lapatinib (ATPlite cell survival); format: cell-based; settings: compound 5 μM + Lapatinib 1 μM, 72 h; secondary Lapatinib-resistant human breast cancer cells; CDI<1 synergistic
Protocol: as §1, §2, §3, §4, §5, §6

BT/Lap^R1.0 = test: as above; format: cell-based; settings: compound 5 μM + Lapatinib 1 μM, 72 h; secondary Lapatinib-resistant human breast cancer cells; CDI<1 synergistic
Protocol: as §1, §2, §3, §4, §5, §6

inhibition at 200 µM (Hsp70 ATPase) [%] | SMILES | CDI of example compounds and Lapatinib, SK-BR3 (SK-BR3) | CDI of example compounds and Lapatinib, BT474 (BT474) | CDI of example compounds and Lapatinib, MDA-MB-453 (MDA-MB-453) | CDI of example compounds and Lapatinib, MDA-MB-361 (MDA-MB-361) | CDI of example compounds and Lapatinib, SK/Lap^R1.0 (SK/Lap^R1.0) | CDI of example compounds and Lapatinib, BT/Lap^R1.0 (BT/Lap^R1.0)
50.5 | COc1cc(/C=C/C(=O)NC(NC(=S)Nc2ccccc2)C2CC2)cc(OC)c1OC (stereo not drawn) [Example 28, (2E)-N-[cyclopropyl-(3-phenylthioureido)-methyl]-3-(3,4,5-trimethoxyphenyl) acrylamide] | 1.06 | 1.07 | 1.21 | 0.93 | 0.95 | 0.99
50.5 | COc1cc(/C=C/C(=O)NC(NC(=S)Nc2ccccc2C)C(C)(C)C)cc(OC)c1OC (stereo not drawn) [Example 44, (2E)-N-[2,2-dimethyl-1-(3-o-methylphenylthioureido)propyl]-3-(3,4,5-trimethoxyphenyl)acrylamide] | 0.96 | 0.94 | 1.12 | 0.93 | 0.98 | 0.93
4.55 | COc1cc(/C=C/C(=O)NC(NC(=S)Nc2ccccc2)C(C)(C)C)cc(OC)c1OC (stereo not drawn) [Example 26] | 1.03 | 1.02 | 0.89 | 0.99 | 1.02 | 0.96
2.51 | CC(C)CC(NC(=O)/C=C/c1ccccc1)NC(=S)Nc1ccccc1 (stereo not drawn) [Example 38, (2E)-N-[3-methyl-1-(3-phenylthioureido)butyl] cinnamamide] | 1.16 | 0.86 | 1.21 | 1 | 0.93 | 0.93
50.4 | COc1cc(/C=C/C(=O)NC(CC(C)C)NC(=S)Nc2ccccc2)cc(OC)c1OC (stereo not drawn) [Example 24, (2E)-N-[3-methyl-1-(3-phenylthioureido)butyl]-3-(3,4,5-trimethoxyphenyl) acrylamide] | 1.04 | 1.03 | 1.12 | 0.92 | 1 | 0.98
27.3 | CC(C)(C)C(NC(=O)/C=C/c1ccccc1)NC(=S)Nc1ccccc1 (stereo not drawn) [Example 40, (2E)-N-[2,2-dimethyl-1-(3-phenylthioureido)propyl] cinnamamide] | 1.14 | 0.85 | 1.37 | 0.95 | 0.99 | 0.95
